Series [1] has as its system monocyte-derived macrophages (MDM). Put plainly: Intracellular level of CBV-TP in MDM treated with 10 μM ABC or ABC ProTides. The format is cell-based. Conditions: 10 μM drug; for maximum CBV-TP levels: 3-48 hours; for percentage decrease of intracellular CBV-TP from Cmax at 48 hours: (Cmax−Cmin)/(Cmax)*100. How it is done: (§1) Cell model for in vitro studies: Human peripheral blood monocytes were obtained and cultured as described (Gendelman, et al., J. Exp. Med. (1988) 167:1428-1441). Briefly, human peripheral blood monocytes were obtained by leukapheresis from HIV-1/2 and hepatitis B seronegative donors, followed by purification via countercurrent centrifugal elutriation. Elutriated monocytes were cultured as adherent cells in Dulbecco's […] medium (DMEM) supplemented with 10% heat-inactivated pooled human serum, 10 μg/mL ciprofloxacin, 50 μg/mL gentamicin, and 1000 U/mL recombinant macrophage colony stimulating factor. Cells were maintained at 37° C. in a 5% CO2 incubator. Seven days later, differentiated macrophages (MDM) were used for the experiments.
Intracellular level of CBV-TP of ABC and its ProTides: Intracellular levels of CBV-TP were measured as described (Balzarini, et al., FEBS Lett. (2004) 573:38-44). MDM were treated with 10 μM ABC and ABC ProTides. At 3, 6, 12, 24 and 48 hours after treatment, MDM were washed with PBS to remove excess free drug. The cells were then collected in 70% methanol. CBV-TP from MDM was extracted and quantitated by LC-MS/MS as described (Gautam, et al., J. Pharm. Biomed. Anal. (2018) 153:248-259). Sep-Pak QMA cartridges (360 mg, 37-55 μm; Waters) were used to separate CBV-TP from their mono- and di-phosphates counterparts. The QMA cartridges were conditioned with 10 ml of 500 mM KCl followed by 10 ml of 5 mM KCl. Samples were loaded onto the cartridges and washed with 15 ml of 75 mM KCl. The triphosphate fraction was eluted with 3 ml of 500 mM KCl and collected for de-phosphorylation. The pH of the TP fraction was lowered to 4.25 by adding 15 μl ammonium acetate buffer (pH 4.10 mM) per ml eluate, and dephosphorylated by adding one unit of type XA sweet potato acid phosphatase per ml eluate and incubating at 37° C. for 30 minutes. The ^15N2^13C-3TC and d4-ABC internal standard was added at this point. Samples were then loaded onto Waters OASIS® HLB cartridges (60 mg, 30 μm; Waters) pre-conditioned with 3 ml MeOH and 3 ml H2O, and washed with 3.5 ml H2O to remove salts. The nucleosides of interest were then eluted with 1.5 ml of MeOH and evaporated under vacuum. Once dry, the residue was reconstituted with a 100 μl of 25% MeOH and stored in the −20° C. freezer until the time of LC-MS/MS analyses. The LC-MS/MS system comprised of a Waters ACQUITY ultra-performance liquid chromatography (UPLC) system (Waters, Milford, Mass.) coupled to a triple quadrupole mass spectrometer with electrospray ionization (ESI) source (Waters Xevo TQ-XS). For the indirect quantification of TPs, chromatographic separation was performed with an ACQUITY UPLC using CSH analytical column (2.1×100 mm, 1.7 μm; Waters) equipped with a guard column (Waters, Milford, Mass.). Mobile phase A consisted of ammonium bicarbonate (pH 7, 7.5 mM) and mobile phase B was methanol. The flow rate was 0.25 ml/minute. […] Mobile phase B was then reset to 12% over 0.25 minutes and the column was equilibrated for 2.75 minutes before the next injection. The total run time was 13 minutes. The mass spectrometer was operated in the positive ion mode using multiple reaction monitoring (MRM). The following transitions were monitored: m/z 230→112 for 3TC, m/z 248→152 for CBV, m/z 287→191 for ABC, m/z 233→115 for the internal standard (IS) ^15N2^13C-3TC, and m/z 291→195 for IS d4-ABC. 3TC, CBV, ABC, ^15N2^13C-3TC, and d4-ABC were detected at a cone voltage of 22, 2, 4, 12, and 2 V, respectively, and a collision energy of 12, 12, 20, 10, and 20 V, respectively.

Series [2] shares this test system. Put plainly: Cell viability of ABC and its ProTides in MDM (CCK-8). The format is cell-based, human. How it is done: Cell viability of ABC and its ProTides: A CCK-8 Kit was purchased from Dojindo (Rockville, Md.) and used to test cell viability after treatment with ABC and its ProTides. Briefly, MDM plated in a 96-well plate were treated with 100 μl of 0-400 μM ABC and its ProTides for 24 hours. Drug containing medium was removed and replaced with fresh medium. Ten μl of CCK-8 solution was added to each well followed by incubation of the plate for 2 hours at 37° C. The absorbance (at 450 nm) of each well was measured using a microplate reader. The cell viability was calculated according to manufacturer's instructions.

Series [3] concerns HIV-1ADA. Put plainly: Antiretroviral activity of ABC and its ProTides against HIV-1ADA in MDM (RT activity). Conditions: human MDM, RT activity day 10 post infection. The series is classed as cell-based. How it is done: as §1
Antiretroviral activity of ABC and its ProTides: The antiviral activities of native ABC and ABC ProTides against HIV-1ADA were determined in MDM as described (Singh, et al., Nanomedicine (2016) 11:1913-1927). MDM were incubated with various concentrations of ABC or ABC ProTides for 60 minutes followed by infection with HIV-1ADA at a multiplicity of infection (MOI) of 0.01 for 4 hours. […] At day 10 post infection, supernatants were collected and analyzed for HIV-1 reverse transcriptase (RT) activity (Kalter, et al., J. Clin. Microbiol. (1992) 30:993-995).

A further series in a line: Stability assay in serum. The series is classed as in vitro ADME, human. To be noted: 37° C., 24 hours, 15 μg/ml. How it is done: Stability Assay in Serum: The experiment was carried out by adding each ProTide into 100 μl human serum to reach a final concentration of 15 μg/ml in glass vial, and duplicate samples were used for each ProTide. After incubating the samples at 37° C. with shaking for 24 hours, 900 μl of MeOH was added to stop the reaction. Samples were vortexed for 3 minutes, then centrifuged down at 16,000 g for 10 minutes. The supernatants were transfer to new 2 ml tubes and evaporated to dryness under vacuum. The samples were reconstituted using 50 μl of MeOH, vortexed for 3 minutes and centrifuged down at 16,000 g for 10 minutes. The supernatants were analyzed by HPLC for drug concentrations. For control sample (0 minute), MeOH were added first to stop the enzyme before adding the ProTides.

The nature of series [4]: Characterization of NPABC nanoparticles (DLS, drug loading). The series is classed as physicochemical. To be noted: PABC nanocrystals. From the text:
The LASER ProTide nanocrystals (NPABC, NP3TC, NPFTC and NPTFV) may be coated with either cell or tissue receptor targeted or non-targeted poloxamer 407 (P407), poloxamer 338 (P338), 1,2-distearoyl-sn-glycero-3-phosphocholine (DSPC), 1,2-distearoyl-sn-glycero-3-phosphoethanolamine-N-carboxy(polyethylene glycol)-2000 (DSPE-PEG) or polyvinyl alcohol (PVA). The nanocrystals may also be stabilized with polysorbate and polyethylene glycol surfactants. Here, a drug to surfactant ratio of 2:1 by weight was used to manufacture NPABC nanoparticles. Briefly, 1-5% (w/v) PABC and 0.5-2.5% (w/v) P407 were mixed in sterile phosphate buffer. The premixed suspensions were nanoformulated by wet milling or high-pressure homogenization at 20,000-psi until desirable size and polydispersity index were achieved. The LASER ProTide nanoformulations were characterized for particle size, polydispersity index (PDI) and zeta potential by dynamic light scattering (DLS). […] For P407-PABC nanoparticles (NPABC), the average size (diameter) was 350 nm, the PDI was 0.28, and the charge was −21.4 mV.
Nanoparticle morphology was determined by scanning electron microscopy (SEM). UPLC MS/MS was used for drug quantitation. The conversion of ABC to PABC facilitated production of stable nanocrystals with a drug loading capacity of more than 70%.

Series [5] relates to HIV-1ADA. Put plainly: IC50 determination of ABC, MABC, PABC in MDM challenged with HIV-1ADA (RT activity). To be noted: HIV-1ADA MOI 0.1, RT activity day 10, read-out: IC50 on reverse transcriptase. The format is cell-based. How it is done:
(§2) Antiretroviral activities. Antiretroviral efficacy was determined by measurements of HIV reverse transcriptase (RT) activity. For IC50 determination, MDM were exposed to various concentrations (0.01-1000 nM) of ABC, MABC or PABC for 1 hour followed by challenge with HIV-1ADA at a multiplicity of infection (MOI) of 0.1 infectious particles per cell for 4 hours. Following viral challenge, cells were washed and incubated with the same concentration of drug used before infection for an additional 10 days in culture. Culture fluids were collected on day 10 for the measurement of RT activity. To assess antiretroviral efficacy, MDM were treated with 100 μM ABC, PABC or NPABC as described above for 8 hours. After treatment, cells were washed with PBS and cultured with fresh media, with half-media exchanges every other day. At 0, 4, 12 hours, and 1, 5, 10, 15 or 20 days after treatment, cells were challenged with HIV-1ADA at an MOI of 0.1 infectious particles per cell for 16 hours. After viral infection, the cells were cultured an additional 10 days with half-media exchanges every other day. Culture fluids were collected for measurement of RT activity. Cells were fixed with 4% PFA and expression of HIV-1 p24 antigen was determined by immunocytochemistry.

Series [6] relates to HIV-1ADA. Put plainly: Antiretroviral efficacy of ABC, PABC, NPABC in MDM challenged with HIV-1ADA (RT activity, p24). The series is classed as cell-based. To be noted: 100 μM 8 hours. How it is done:
as §2, with “Culture fluids were collected for measurement of RT activity.” left out
Significant improvements in MDM antiretroviral efficacy were also observed for PABC and NPABC. […] HIV-1 p24 was not detected in the PABC or NPABC-treated groups at the measured timepoints (FIG. 6). […]

Values joined by “and” are separate entries in the source; they are usually repeats but may differ in a detail not shown here. Identical values can stand only once.

Turning to `COC(=O)C(C)NP(=O)(OCC1C=CC(n2cnc3c(NC4CC4)nc(N)nc32)C1)Oc1ccccc1` (mixture of isomers) [M1ABC], in series [1], the “maximum CBV-TP levels” value is given as 35650 fmol per million cells; the “CBV-TP levels at 48 hours” value was determined as 789 fmol per million cells; the “percentage decrease of intracellular CBV-TP from Cmax at 48 hours” value is 97% and 97.8%. Also, in series [2] (400 μM), the “mitochondrial activity compared to ABC” value is on record as “differences in mitochondrial activity were seen”. The concentration giving a half-maximal response (EC50) with HIV-1ADA [3] was 1.8 nM.

For the molecule `CCCCCCCCCCCCCCCCCCCCCCOC(=O)C(Cc1ccccc1)NP(=O)(OCC1C=CC(n2cnc3c(NC4CC4)nc(N)nc32)C1)Oc1ccccc1` (mixture of isomers) [M3ABC], in series [1], the “maximum CBV-TP levels” value is on record as 541 fmol per million cells; the “CBV-TP levels at 48 hours” value is 230 fmol per million cells; the “percentage decrease of intracellular CBV-TP from Cmax at 48 hours” value was 57% and 57.3%. In addition, the “cell viability difference versus ABC” value in series [2] (all tested drug concentrations (0-400 μM)) is “No significant differences”. For the same molecule, the “prodrug hydrolyzed/degraded in human serum” value in the series “Stability assay in serum” is “Nineteen percent”. This molecule also had an EC50 in the series on HIV-1ADA [3] of 7 nM.

Turning to `CCCCCCCCCCCCCCCCCCCCCCOC(=O)C(Cc1ccccc1)NP(=O)(OCC1C=CC(n2cnc3c(NC4CC4)nc(N)nc32)C1)Oc1ccccc1` (mixture of isomers) [PABC], in series [4], the drug loading capacity result is recorded as “more than 70%”. Moreover, the half-maximal inhibitory concentration (IC50) in the series on HIV-1ADA [5] was 20.5 nM. In the series with HIV-1ADA [6], the “antiretroviral activity compared to ABC” value is reported as “enhanced antiretroviral activity”. For the same molecule, the “HIV-1 p24” value with HIV-1ADA [6] (challenge after 1-20 days) is reported as “not detected”.

For the molecule `CCCCCCCCCCCCCC(=O)OCC1C=CC(n2cnc3c(NC4CC4)nc(N)nc32)C1` (stereo not shown) [MABC], in the series with HIV-1ADA [5], the concentration for half-maximal inhibition (IC50) amounted to 227 nM.

In general, EC50 refers to the midpoint of the concentration-response curve. For orientation: IC50 means the concentration that inhibits the measured activity by half.

For the origin of these results see US11839623B2, “Antiviral prodrugs and formulations thereof” (BOARD OF REGENTS OF THE UNIVERSITY OF NEBRASKA, priority 2018, dated 2023).
